The results in this text go back to US8957056B2, “Migrastatin analogs in the treatment of cancer” (Sloan-Kettering Instiute for Cancer Research, priority 2004, dated 2015).

For one data set, the system named is Ovcar3. The data set can be described thus: Cell proliferation and viability assay (XTT), Ovcar3. It counts as cell-based, human. To be noted: 72 h in total. The protocol: (§1) Cell proliferation and viability measurement were assessed by a colorimetric assay using sodium 39-(phenylaminocarbonyl)-3,4-tetrazolium-bis(4-methoxy-6-nitro) benzene sulfonic acid hydrate (XTT, Sigma, St. Louis, Mo.), and phenazine methosulphate (PMS, Sigma, St. Louis, Mo.). Cells from indicated lines were plated at 5˜10×10×10^3/well in 96 well plates in the presence of different concentration of compounds for 52 hrs. Then 50 μL of XTT/PMS mixture was added to each well and incubated for an additional 20 hrs at 37° C. Plate absorbance was measured directly at optical density of 490 nm (reference wavelength at 650 nm) in an ELISA reader (Thermo Max Microplate Reader, Molecular Devices, CA). The data was expressed as the mean of readings obtained in wells with treatment with subtraction of the reading with vehicle control. The total metabolic activity, which correspond to the number of living cells directly correlate to the amount of orange formazan formed in a cell. The result is expressed as percentage of the control.

A short description of data set [1]: Mouse blood plasma stability. Conditions: test period one hour. The protocol: The biological evaluation of the compounds (in terms of their ability to inhibit cell migration) was accomplished in a Boyden chamber cell migration assay. In this assay, mouse breast tumor cells (4T1 cells) or endothelial cells (HUVECs) are seeded on the upper chamber of a transwell insert. Growth factor-containing serum is added to the lower chamber.
In anticipation of subsequent in vivo evaluation of these compounds and others, preliminary metabolic stability studies were carried out. […] As a test of the ‘deactivation hypothesis’, the hydrolysis product of macrolactone 48 was prepared (Scheme 27) and tested for its activity against tumor cell migration.

In data set [2] the test system is human ovarian tumor cell line OVCAR3. The data set can be described thus: In vivo metastatic ovarian xenograph model (OVCAR3 HSV-TK/eGFP/FLuc). More on the design: species or system mouse. The text has this:
The human ovarian tumor cell line OVCAR3 was transduced with a triple fusion gene HSV-TK/eGFP/FLuc, expressing thymidine kinase, enhanced green fluorescence protein and firefly luciferase. Whole animal imaging by luciferase bioluminescence (FIGS. 7A & B), allowed identification and quantification of disseminated tumor. We quantified the tumor burden in each organ, by sacrificing the mouse shortly after luciferin injecting and imaging of the dissected organs (lung, liver and spleen) (FIG. 8). In all instances tumor engraftment was initiated with 1-5×10^7 cells and the recipients received 3 Gy irradiation 10 days before tumor engraftment. These tumor cells generated bulky omental metastases with diffuse microscopic peritoneal carcinomatosis causing ascites (FIG. 9), significant pleural effusion with diffuse macroscopic peritoneal carcinomatosis and liver, lung and paraaortic metastases.
Treatment was initiated once primary tumor was well established. Animals were imaged at weekly intervals to monitor tumor growth and location of metastases (imaging sensitivity 200-500 cells).

Data set [3] has as its system mouse breast tumor cells (4T1 cells). In words: Boyden chamber cell migration assay, 4T1. The format is cell-based. Conditions: 4T1 tumor cells, 6-8 hours; read-out: IC50 value, chamber cell migration assay.
For another data set, the system named is HCT116. The data set can be described thus: Cell proliferation and viability assay (XTT), HCT116. It counts as cell-based, human. To be noted: 72 h in total. The protocol: as §1
On the technique in general: Tetrazolium assays rely on reduction of a dye to a coloured formazan, in cell work by metabolically active cells.

Another data set relates to Ovcar4. In words: Cell proliferation and viability assay (XTT), Ovcar4. The format is cell-based, human. To be noted: 72 h in total. The protocol:
as §1

The test system of data set [4] is human breast cancer cell line MDA MB435. In words: Wound healing (scratch) assay, MDA MB435. More on the design: key: successful (+); unsuccessful (−) inhibition of cell migration. Conditions: 10X IC50: 48 (240 nM), 55 (1000 nM), 60 (2550 nM); 24 and 48 h. It counts as cell-based. The protocol: (§2) The tumor cells were seeded into 24-multiwell plates (Becton-Dickinson) and cultivated until the cells formed a confluent monolayer. Wounds were set by horizontally scratching the monolayer with a sterile pipette tip. The cells were thereafter washed twice with Phosphate Buffered Saline (PBS) to remove detached cells. Growth media was then added containing different concentrations of the chemical compound and incubated at 37° C. […] The cells were photographed at the beginning of the experiment and after 24 and 48 h to assess the progression of cell migration into the wound.

In another data set the test system is CAG cells. In words: CAG cell proliferation assay (XTT). It counts as cell-based, human. To be noted: printed in the legend on CAG cell proliferation; read-out: IC50 (legend of FIG. 3). The method, then:
In the last 20 hours, sodium 3′-[1-(phenylamino-carbonyl)-3,4-tetrazolium]-bis(4-methoxy-6-nitro) benzene sulfonic acid hydrate (XTT) was added and optical absorbance at 490 nm were measured. As reference wavelength 650 nm was used. […] The result was expressed as percentage of the control.

Data set [5] has as its system human colon cancer cell line HT 29. In words: Wound healing (scratch) assay, HT 29. The arrangement: key: successful (+); unsuccessful (−) inhibition of cell migration. Conditions: 10X IC50: 48 (240 nM), 55 (1000 nM), 60 (2550 nM); 24 and 48 h. It counts as cell-based. The protocol:
(§3) The human ovarian cancer cell lines Ovcar3 and IGROV were grown in M5 media. The colon cell lines HT 29 and HCT 116 were cultivated in DMEM containing 10% FCS in a humidified environment at 37° C. Myeloma cell lines CAG (obtained from The Myeloma Institute for Research and Therapy, University of Arkansas) and RPMI8226 as well as lymphoma cell line RL were maintained at RPMI1640 medium containing 10% FCS. All cell lines were acquired from the ATCC if not otherwise stated.
as §2

For another data set, the system named is SKOV. In words: Cell proliferation and viability assay (XTT), SKOV. The format is cell-based, human. Conditions: 72 h in total, no morphological sign of apoptosis or cell death. The protocol:
as §1

Another data set relates to HT29. In words: Cell proliferation and viability assay (XTT), HT29. The format is cell-based, human. Conditions: 72 h in total, no morphological sign of apoptosis or cell death. The method, then:
as §1

In data set [6] the test system is human ovarian cancer cell line IGROV. In words: Wound healing (scratch) assay, IGROV. Conditions: 10X IC50: 48 (240 nM), 55 (1000 nM), 60 (2550 nM); 24 and 48 h. The format is cell-based. The arrangement: key: successful (+); unsuccessful (−) inhibition of cell migration. The protocol:
as §3, §2

The subject of another data set is colon cell line HCT 116. The data set can be described thus: Wound healing (scratch) assay, HCT 116. To be noted: 10X IC50: 48 (240 nM), 55 (1000 nM), 60 (2550 nM); 24 and 48 h. The arrangement: key: successful (+); unsuccessful (−) inhibition of cell migration. It counts as cell-based, human. The protocol:
as §3, §2

Data set [7] concerns human ovarian cancer cells Ovcar3. The data set can be described thus: Immunofluorescence staining of treated Ovcar3 cells. It counts as cell-based. Conditions: 500 nM. The protocol: (§4) For the microarray comparison (Affymetrix chip -AU133 plus) human ovarian cancer cells (Ovcar3) and human colon cancer cells (HT29) were treated with 500 nM DMC (48) for 6 h and 18 h or left untreated. A large panel of up and down regulated genes were detected including a broad array of motility, cell shape and chemotaxis genes (FIG. 17).
Ovcar3 cells in exponential growth phase were seeded into 24 well plates at 2×10^4/ml in the presence of 500 nM of DMC (48). […] At the time of staining, cells were pre-blocked at room temperature in PBS with 3% BSA and 0.2% Na-azide. After washing, the cells were then incubated with indicated monoclonal antibody (FIG. 18), diluted 1:200 in 1.5% blocking serum, at 37° C. Cells were washed again and incubated with anti-mouse-Alexa red secondary antibody in the dark at 37° C. Cells were then counter-stained with 4,6-diamidino-2-phenylindole (DAPI) at 0.2 μg/ml PBS.

Data set [8] concerns human ovarian cancer cell line Ovcar3. The data set can be described thus: Wound healing (scratch) assay, Ovcar3. It counts as cell-based. More on the design: key: successful (+); unsuccessful (−) inhibition of cell migration. Conditions: 10X IC50: 48 (240 nM), 55 (1000 nM), 60 (2550 nM); 24 and 48 h. The method, then: as §3, §2
The next data set relates to IGROV. In words: Cell proliferation and viability assay (XTT), IGROV. To be noted: 72 h in total, no morphological sign of apoptosis or cell death. It counts as cell-based, human. The method, then:
as §1

Data set [9] has as its system human colon cancer cells (HT29). In words: Microarray analysis of treated HT29 cells. The format is cell-based. Conditions: 500 nM, 6 h and 18 h. The protocol:
as §4

The subject of data set [10] is human breast cancer cell line MDA MB435. The data set can be described thus: Chamber cell migration assay, MDA MB435. The format is cell-based. To be noted: highly metastatic human breast cancer cell line. The protocol:
Cell migrations were assayed with 8 μm of microporous 6.5-mm transwell plates (Corning). 200 μl of 2×10^5 cells in serum-free RPMI1640 medium containing 0.5% BSA were added to the upper chamber and 600 μl of medium with 10% fetal bovine serum was added to the lower chamber. […] Cells migrated to the lower wells were collected and counted for liquid tumors, solid tumors were processed as previously described.^28 Data shown are representative of at least three experiments.

[11] abbreviates: 40 mg/kg three times a week for 10 treatments.
Where [12] appears, read: daily injection of 40 mg/kg i.p.

SMILES strings stand for the structures.

On to `CO[C@H]1/C=C/CCCCC(=O)OC/C(C)=C\[C@@H](C)[C@@H]1O` [Compound 48, Macrolactone], for which the “effect on proliferation, Ovcar3” value in the data set with Ovcar3 is “uninfluenced”. For the same molecule, in data set [1], the “metabolic stability in mouse blood plasma” value is “hydrolyzed rapidly”. In data set [2] (setting [11]), the “reduction of metastasis for liver” value is recorded as 80%; the “reduction of metastasis in lung and spleen” value is given as “highly significant reduction”. For the same molecule, the “treated mice that had ascitis” value in data set [2] (FIG. 9, 4 out of 4 control mice had ascitis) is given as 1 out of 4. In [2] (setting [12]), the “survival” value is on record as “increase of survival” and the “total tumor mass” value is “reduction of the total tumor mass”. Also, the “mice with inhibition of ascitis at the endpoint” value in data set [2] (daily injection of 40 mg/kg i.p., all control mice developed ascites) is listed as 3 out of 4. For the same molecule, in data set [3], the IC50 worked out at 24 nM. Further, in the data set on HCT116, the “effect on proliferation, HCT116” value is on record as “uninfluenced”. In the data set with Ovcar4, the “effect on proliferation, Ovcar4” value is listed as “uninfluenced”. For the same molecule, the “inhibition of cell migration, wound healing assay, MDA MB435” value in data set [4] is reported as “+”. In addition, the IC50 in the data set with CAG cells turned out to be 24 nM. Further, the “inhibition of cell migration, wound healing assay, HT 29” value in data set [5] is recorded as “+”. Further, the “effect on proliferation, SKOV” value in the data set on SKOV was “inhibition of proliferation”. Further, the “effect on proliferation, HT29” value with HT29 is reported as “inhibition of proliferation”. Moreover, the “inhibition of cell migration, wound healing assay, IGROV” value in data set [6] is “+”. For the same molecule, the “inhibition of cell migration, wound healing assay, HCT 116” value with colon cell line HCT 116 is “+”. Also, the “Integrin α2 and CD44, immunofluorescent microscopy” value in [7] is on record as “Upregulated”. The “β-tubulin, immunofluorescent microscopy” value in data set [7] (after 6 h or 24 h) is reported as “did not show any modulations”. In addition, the “inhibition of cell migration, wound healing assay, Ovcar3” value in data set [8] was “+”. The “effect on proliferation, IGROV” value in the data set with IGROV is “inhibition of proliferation”. The “E-cadherin expression, micro array” value in data set [9] is reported as “upregulation”. For the same molecule, the “response of MDA MB435 to the compound” value in [10] is reported as “responded only slightly”.
